Measured values published in PubChem BioAssay AID248 (DTP/NCI, 2004).
“And” between values parts separate entries of the source, which are not always exact repeats. Identical values can stand only once. Inconclusive results and toxic doses are left out. No stated cut-off is given here; in the data, active means T/C of 150% or more; inactive means T/C below 125%.

System: L1210 leukemia ip in BDF1 mice, survival T/C
Test: NCI In Vivo Anticancer Drug Screen. Data for tumor model L1210 Leukemia (intraperitoneal) in B6D2F1 (BDF1) mice
Details: endpoint: mean survival time, higher = longer survival
Summary of the method: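 Read-out is survival time, reported as the treated-group measurement over the vehicle-control measurement.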

[1] = dose: 50.0 mg/kg/injection, schedule: Q01DX009 (ip), vehicle: Klucel (hydroxypropylcellulose) (HPC)
[2] = dose: 100.0 mg/kg/injection, schedule: Q01DX009 (ip), vehicle: Klucel (hydroxypropylcellulose) (HPC)
[3] = dose: 100.0 mg/kg/injection, schedule: Q04DX003 (ip), vehicle: Klucel (hydroxypropylcellulose) (HPC)
[4] = dose: 200.0 mg/kg/injection, schedule: Q04DX003 (ip), vehicle: Klucel (hydroxypropylcellulose) (HPC)
[5] = dose: 100.0 mg/kg/injection, schedule: Q04DX002 (ip), vehicle: Klucel (hydroxypropylcellulose) (HPC)
[6] = dose: 200.0 mg/kg/injection, schedule: Q04DX002 (ip), vehicle: Klucel (hydroxypropylcellulose) (HPC)
[7] = dose: 400.0 mg/kg/injection, schedule: Q04DX002 (ip), vehicle: Klucel (hydroxypropylcellulose) (HPC)
[8] = dose: 400.0 mg/kg/injection, schedule: Q04DX002 (ip), vehicle: saline with Tween-80
[9] = dose: 100.0 mg/kg/injection, schedule: Q04DX003 (ip), vehicle: saline
[10] = dose: 100.0 mg/kg/injection, schedule: Q01DX001 (ip), vehicle: saline
[11] = dose: 400.0 mg/kg/injection, schedule: Q01DX001 (ip), vehicle: saline
[12] = dose: 200.0 mg/kg/injection, schedule: Q01DX001 (ip), vehicle: saline
[13] = dose: 200.0 mg/kg/injection, schedule: Q01DX009 (ip), vehicle: Klucel (hydroxypropylcellulose) (HPC)
[14] = dose: 400.0 mg/kg/injection, schedule: Q01DX009 (ip), vehicle: Klucel (hydroxypropylcellulose) (HPC)
[15] = dose: 400.0 mg/kg/injection, schedule: Q04DX003 (ip), vehicle: Klucel (hydroxypropylcellulose) (HPC)

Measured: T/C

CC[N-]c1nncs1.CC[N-]c1nncs1.CC[N-]c1nncs1.CC[N-]c1nncs1.[Cl][Rh][Cl]
inactive: dose: 3.13 mg/kg/injection, schedule: Q04DX003 (ip), vehicle: distilled water + Tween-80 101 % of control | dose: 6.25 mg/kg/injection, schedule: Q04DX003 (ip), vehicle: distilled water + Tween-80 104 % of control | dose: 12.5 mg/kg/injection, schedule: Q04DX003 (ip), vehicle: distilled water + Tween-80 98 % of control | dose: 25.0 mg/kg/injection, schedule: Q04DX003 (ip), vehicle: distilled water + Tween-80 92 % of control | dose: 50.0 mg/kg/injection, schedule: Q04DX003 (ip), vehicle: distilled water + Tween-80 93 % of control | dose: 100.0 mg/kg/injection, schedule: Q04DX003 (ip), vehicle: distilled water + Tween-80 104 % of control

O=C(ONC1CCC(CC2CCCCC2)CC1)c1ccccc1 (stereo unspecified)
inactive: [1] 102 % of control | [2] 97 % of control | [3] 97 % of control | [4] 89 % of control

Cc1cc(C)c(C(=O)OCCN(C)C)c(C)c1
inactive: dose: 75.0 mg/kg/injection, schedule: Q01DX001 (ip), vehicle: saline 110 % of control | dose: 150.0 mg/kg/injection, schedule: Q01DX001 (ip), vehicle: saline 98 % of control

COc1cc(N(CCCl)CCCl)ccc1C=Nc1cccc(Cl)c1
inactive: dose: 50.0 mg/kg/injection, schedule: Q01DX001 (ip), vehicle: carboxymethylcellulose (CMC) 114 % of control | dose: 100.0 mg/kg/injection, schedule: Q01DX001 (ip), vehicle: carboxymethylcellulose (CMC) 111 % of control | dose: 200.0 mg/kg/injection, schedule: Q01DX001 (ip), vehicle: carboxymethylcellulose (CMC) 100 % of control | dose: 400.0 mg/kg/injection, schedule: Q01DX001 (ip), vehicle: carboxymethylcellulose (CMC) 100 % of control

c1ccc(-c2cc(-c3ccccc3)[o+]c(-c3ccccc3)c2)cc1
inactive: [5] 93 % of control | [6] 96 % of control | [7] 90 % of control

c1ccc([Si]([O][Sn]([c]2ccccc2)([c]2ccccc2)[c]2ccccc2)(c2ccccc2)c2ccccc2)cc1
inactive: dose: 25.6 mg/kg/injection, schedule: Q04DX002 (ip), vehicle: saline with Tween-80 89 % of control | dose: 64.0 mg/kg/injection, schedule: Q04DX002 (ip), vehicle: saline with Tween-80 93 % of control | dose: 160.0 mg/kg/injection, schedule: Q04DX002 (ip), vehicle: saline with Tween-80 93 % of control | [8] 89 % of control

CC(N)Cc1ccc2c(c1)OCO2 (stereo unspecified)
inactive: dose: 6.0 mg/kg/injection, schedule: Q01DX009 (ip), vehicle: saline 104 % of control | dose: 6.25 mg/kg/injection, schedule: Q01DX009 (ip), vehicle: saline 103 % of control | dose: 12.0 mg/kg/injection, schedule: Q01DX009 (ip), vehicle: saline 98 % of control | dose: 12.5 mg/kg/injection, schedule: Q01DX009 (ip), vehicle: saline 93 % of control | dose: 25.0 mg/kg/injection, schedule: Q01DX009 (ip), vehicle: saline 106 % of control and 98 % of control and 102 % of control | dose: 25.0 mg/kg/injection, schedule: Q04DX003 (ip), vehicle: saline 103 % of control and 96 % of control | dose: 50.0 mg/kg/injection, schedule: Q01DX009 (ip), vehicle: saline 108 % of control | dose: 50.0 mg/kg/injection, schedule: Q04DX003 (ip), vehicle: saline 103 % of control and 97 % of control | [3] 93 % of control | [9] 110 % of control

CCOC(=O)CNC(=O)Oc1c(Cl)cccc1Cl
inactive: dose: 25.0 mg/kg/injection, schedule: Q01DX009 (ip), vehicle: Klucel (hydroxypropylcellulose) (HPC) 100 % of control | [1] 88 % of control | [2] 89 % of control

CCCS(=O)(=O)N1CCCCC1
inactive: [5] 102 % of control | [6] 94 % of control | [7] 102 % of control

CCOC(=O)c1ccccc1C(=O)c1ccccc1
inactive: [5] 118 % of control | [6] 100 % of control | [7] 95 % of control

Cc1ccc([N+](=O)[O-])cc1NC(=O)NCCO
inactive: [9] 106 % of control | dose: 200.0 mg/kg/injection, schedule: Q04DX003 (ip), vehicle: saline 106 % of control | dose: 400.0 mg/kg/injection, schedule: Q04DX003 (ip), vehicle: saline 103 % of control

COC(=O)Nc1cccc(OC(=O)NCC(C)C)c1
inactive: dose: 100.0 mg/kg/injection, schedule: Q01DX009 (ip), vehicle: saline with Tween-80 87 % of control | dose: 200.0 mg/kg/injection, schedule: Q01DX009 (ip), vehicle: saline with Tween-80 91 % of control | dose: 400.0 mg/kg/injection, schedule: Q01DX009 (ip), vehicle: saline with Tween-80 96 % of control

NC(=Nc1ccccc1)C(N)=Nc1ccccc1
inactive: dose: 100.0 mg/kg/injection, schedule: Q04DX002 (ip), vehicle: gum acacia 107 % of control | dose: 200.0 mg/kg/injection, schedule: Q04DX002 (ip), vehicle: gum acacia 96 % of control | dose: 400.0 mg/kg/injection, schedule: Q04DX002 (ip), vehicle: gum acacia 93 % of control

CC(=O)[C@H]1CC[C@H]2[C@@H]3CC[C@@H]4C[C@@H](O)CC[C@]4(C)[C@H]3CC[C@]12C
inactive: dose: 100.0 mg/kg/injection, schedule: Q04DX002 (ip), vehicle: saline with Tween-80 97 % of control | dose: 200.0 mg/kg/injection, schedule: Q04DX002 (ip), vehicle: saline with Tween-80 100 % of control | [8] 90 % of control

CCc1ccccc1Nc1cc(=O)[nH]c(=O)[nH]1
inactive: dose: 37.5 mg/kg/injection, schedule: Q01DX001 (ip), vehicle: Klucel (hydroxypropylcellulose) (HPC) 91 % of control | dose: 75.0 mg/kg/injection, schedule: Q01DX001 (ip), vehicle: Klucel (hydroxypropylcellulose) (HPC) 87 % of control | dose: 150.0 mg/kg/injection, schedule: Q01DX001 (ip), vehicle: Klucel (hydroxypropylcellulose) (HPC) 93 % of control

COc1ccc(CNc2ccccc2C(=O)O)cc1OC
inactive: [10] 91 % of control | [11] 103 % of control

CN(C)c1ccc(C=Nc2ccccc2O)cc1
inactive: [10] 107 % of control | [12] 96 % of control | [11] 97 % of control

Cc1cc(CS)c(CS)cc1C
inactive: [2] 100 % of control | [3] 96 % of control | [13] 103 % of control | [4] 93 % of control | [14] 102 % of control | [15] 94 % of control

CCOC(=O)/C=C/C(=O)O.[Cu+2]
inactive: dose: 3.12 mg/kg/injection, schedule: Q04DX003 (ip), vehicle: saline 94 % of control | dose: 6.25 mg/kg/injection, schedule: Q04DX003 (ip), vehicle: saline 89 % of control and 91 % of control

COC1=C2C=[N+](C)C3C(=C2C=CC1OC)Cc1cc(OC)c(OC)cc13 (stereo unspecified)
inactive: dose: 50.0 mg/kg/injection, schedule: Q01DX001 (ip), vehicle: saline 98 % of control | [10] 93 % of control | [12] 102 % of control | [11] 96 % of control

CCC(C)c1cccc2c(C(CC)CC)cccc12 (stereo unspecified)
inactive: [10] 104 % of control | [12] 106 % of control | [11] 112 % of control

O=C(N/N=C\c1cc(Cl)ccc1[N+](=O)[O-])c1ccccc1
inactive: [3] 97 % of control | [4] 97 % of control | [15] 103 % of control

CC1(C)CCC(=NO)CC1
inactive: dose: 75.0 mg/kg/injection, schedule: Q01DX001 (ip), vehicle: other 103 % of control | dose: 150.0 mg/kg/injection, schedule: Q01DX001 (ip), vehicle: other 97 % of control

CN(Nc1c([N+](=O)[O-])cc([N+](=O)[O-])cc1[N+](=O)[O-])c1ccc2ccccc2c1
inactive: [1] 103 % of control | [2] 95 % of control | [3] 95 % of control | [13] 95 % of control | [4] 92 % of control | [14] 98 % of control | [15] 95 % of control

NC(=O)Nc1nc(-c2ccccc2)cc(-c2ccccc2O)n1
inactive: [5] 91 % of control | [6] 91 % of control | [7] 102 % of control

O=C(CCl)c1ccc([N+](=O)[O-])o1
inactive: dose: 1.56 mg/kg/injection, schedule: Q01DX001 (ip), vehicle: Klucel (hydroxypropylcellulose) (HPC) 98 % of control | dose: 3.12 mg/kg/injection, schedule: Q01DX001 (ip), vehicle: Klucel (hydroxypropylcellulose) (HPC) 95 % of control | dose: 6.25 mg/kg/injection, schedule: Q01DX001 (ip), vehicle: Klucel (hydroxypropylcellulose) (HPC) 96 % of control

COc1ccc(C(=O)C2=CC(=O)C(=O)C2)cc1OC
inactive: [10] 98 % of control | [12] 98 % of control | [11] 94 % of control

COC(=O)c1ccc(Cn2cnc3ncnc(Cl)c32)cc1
inactive: [3] 92 % of control | [4] 91 % of control | [15] 105 % of control
